# Test results: the kinase profiling compilation of Christmann-Franck et al. (2016)
# What was measured:
# Experiment in all cases: radiometric filter-binding kinase assay, Kinase HotSpot
# Details in all cases: compound 0.5 µM; ATP 10 µM
# ACVRL1 (human) = ACVRL1 (human) (UniProt P37023)
# AKT2 (human) = AKT2 (human) (UniProt P31751)
# ALK (human) = ALK (human) (UniProt Q9UM73)
# CAMK1D (human) = CAMK1D (human) (UniProt Q8IU85)
# CDK5 CDK5R1 p25 (human) = CDK5 CDK5R1 p25 (human) (UniProt Q00535+Q15078)
# Chain of CDK5 CDK5R1 p25 (human) (Q00535 whole entry, looked up): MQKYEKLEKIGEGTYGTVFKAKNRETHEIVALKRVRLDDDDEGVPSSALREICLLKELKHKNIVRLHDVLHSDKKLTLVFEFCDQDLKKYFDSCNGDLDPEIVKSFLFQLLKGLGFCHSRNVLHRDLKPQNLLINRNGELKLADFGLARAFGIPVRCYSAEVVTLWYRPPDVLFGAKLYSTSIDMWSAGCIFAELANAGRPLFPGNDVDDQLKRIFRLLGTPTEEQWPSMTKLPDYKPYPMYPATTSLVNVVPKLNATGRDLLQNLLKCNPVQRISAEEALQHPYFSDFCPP
# Chain of CDK5 CDK5R1 p25 (human) (Q15078 whole entry, looked up): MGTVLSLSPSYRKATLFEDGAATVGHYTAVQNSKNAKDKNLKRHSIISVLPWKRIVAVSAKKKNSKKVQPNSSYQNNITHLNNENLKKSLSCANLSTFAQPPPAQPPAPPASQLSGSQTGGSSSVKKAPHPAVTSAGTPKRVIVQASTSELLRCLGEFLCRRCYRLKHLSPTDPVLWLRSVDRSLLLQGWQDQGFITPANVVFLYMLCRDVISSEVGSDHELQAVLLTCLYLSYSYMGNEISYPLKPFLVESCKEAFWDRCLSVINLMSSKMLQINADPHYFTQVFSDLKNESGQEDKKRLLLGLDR
# CLK1 (human) = CLK1 (human) (UniProt P49759)
# CSK (human) = CSK (human) (UniProt P41240)
# DDR2 (human) = DDR2 (human) (UniProt Q16832)
# DYRK3 (human) = DYRK3 (human) (UniProt O43781)
# EPHA3 (human) = EPHA3 (human) (UniProt P29320)
# EPHA8 (human) = EPHA8 (human) (UniProt P29322)
# GRK4 (human) = GRK4 (human) (UniProt P32298)
# GRK6 (human) = GRK6 (human) (UniProt P43250)
# HIPK2 (human) = HIPK2 (human) (UniProt Q9H2X6)
# IGF1R (human) = IGF1R (human) (UniProt P08069)
# Chain of IGF1R (human) (P08069 whole entry, looked up): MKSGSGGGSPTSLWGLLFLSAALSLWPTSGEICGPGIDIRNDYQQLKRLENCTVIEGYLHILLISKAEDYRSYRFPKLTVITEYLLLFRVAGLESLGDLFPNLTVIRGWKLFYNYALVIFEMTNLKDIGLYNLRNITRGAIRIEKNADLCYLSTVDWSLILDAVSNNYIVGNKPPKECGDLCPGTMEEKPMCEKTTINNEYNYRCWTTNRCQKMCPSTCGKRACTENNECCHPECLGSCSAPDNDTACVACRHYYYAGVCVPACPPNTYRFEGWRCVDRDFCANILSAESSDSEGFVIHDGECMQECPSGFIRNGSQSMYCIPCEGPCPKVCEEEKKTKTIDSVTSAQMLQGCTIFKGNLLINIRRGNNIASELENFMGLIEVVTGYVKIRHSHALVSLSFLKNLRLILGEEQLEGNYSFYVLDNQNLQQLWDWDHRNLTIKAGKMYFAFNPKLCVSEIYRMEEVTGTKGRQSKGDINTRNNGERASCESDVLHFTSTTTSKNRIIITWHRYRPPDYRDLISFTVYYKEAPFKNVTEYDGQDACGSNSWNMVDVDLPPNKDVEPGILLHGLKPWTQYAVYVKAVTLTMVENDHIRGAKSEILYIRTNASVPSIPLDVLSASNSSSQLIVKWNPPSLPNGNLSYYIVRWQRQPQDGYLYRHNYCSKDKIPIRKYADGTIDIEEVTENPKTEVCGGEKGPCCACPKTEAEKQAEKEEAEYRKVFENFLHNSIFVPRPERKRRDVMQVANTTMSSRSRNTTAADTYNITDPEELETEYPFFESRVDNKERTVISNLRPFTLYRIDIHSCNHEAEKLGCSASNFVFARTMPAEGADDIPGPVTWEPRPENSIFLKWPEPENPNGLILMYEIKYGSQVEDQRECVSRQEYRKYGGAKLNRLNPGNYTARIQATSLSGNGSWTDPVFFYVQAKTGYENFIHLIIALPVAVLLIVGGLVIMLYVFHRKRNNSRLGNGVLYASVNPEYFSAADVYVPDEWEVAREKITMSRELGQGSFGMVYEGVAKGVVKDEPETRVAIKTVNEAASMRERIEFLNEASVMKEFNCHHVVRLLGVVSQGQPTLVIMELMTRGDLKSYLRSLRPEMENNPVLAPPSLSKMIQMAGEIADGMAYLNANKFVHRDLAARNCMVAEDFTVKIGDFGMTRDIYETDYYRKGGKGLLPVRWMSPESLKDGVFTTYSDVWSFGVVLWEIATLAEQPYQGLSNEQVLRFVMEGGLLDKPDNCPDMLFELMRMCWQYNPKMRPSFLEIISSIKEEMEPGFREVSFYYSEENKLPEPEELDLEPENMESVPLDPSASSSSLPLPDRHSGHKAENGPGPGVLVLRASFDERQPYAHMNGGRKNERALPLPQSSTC
# IKBKE (human) = IKBKE (human) (UniProt Q14164)
# LCK (human) = LCK (human) (UniProt P06239)
# MAP3K9 (human) = MAP3K9 (human) (UniProt P80192)
# MAPK10 (human) = MAPK10 (human) (UniProt P53779)
# MAPK14 (human) = MAPK14 (human) (UniProt Q16539)
# Chain of MAPK14 (human) (Q16539 whole entry, looked up): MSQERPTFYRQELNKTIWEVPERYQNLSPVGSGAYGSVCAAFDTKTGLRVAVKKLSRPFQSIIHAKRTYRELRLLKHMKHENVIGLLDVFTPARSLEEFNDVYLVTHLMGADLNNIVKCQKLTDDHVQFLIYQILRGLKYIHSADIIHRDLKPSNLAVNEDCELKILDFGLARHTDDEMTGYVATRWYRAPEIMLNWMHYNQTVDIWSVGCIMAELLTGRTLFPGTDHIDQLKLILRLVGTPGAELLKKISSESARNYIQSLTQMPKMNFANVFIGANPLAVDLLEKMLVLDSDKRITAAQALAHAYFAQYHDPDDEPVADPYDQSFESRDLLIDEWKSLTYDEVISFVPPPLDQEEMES
# MAPK3 (human) = MAPK3 (human) (UniProt P27361)
# MARK2 (human) = MARK2 (human) (UniProt Q7KZI7)
# Chain of MARK2 (human) (Q7KZI7 whole entry, looked up): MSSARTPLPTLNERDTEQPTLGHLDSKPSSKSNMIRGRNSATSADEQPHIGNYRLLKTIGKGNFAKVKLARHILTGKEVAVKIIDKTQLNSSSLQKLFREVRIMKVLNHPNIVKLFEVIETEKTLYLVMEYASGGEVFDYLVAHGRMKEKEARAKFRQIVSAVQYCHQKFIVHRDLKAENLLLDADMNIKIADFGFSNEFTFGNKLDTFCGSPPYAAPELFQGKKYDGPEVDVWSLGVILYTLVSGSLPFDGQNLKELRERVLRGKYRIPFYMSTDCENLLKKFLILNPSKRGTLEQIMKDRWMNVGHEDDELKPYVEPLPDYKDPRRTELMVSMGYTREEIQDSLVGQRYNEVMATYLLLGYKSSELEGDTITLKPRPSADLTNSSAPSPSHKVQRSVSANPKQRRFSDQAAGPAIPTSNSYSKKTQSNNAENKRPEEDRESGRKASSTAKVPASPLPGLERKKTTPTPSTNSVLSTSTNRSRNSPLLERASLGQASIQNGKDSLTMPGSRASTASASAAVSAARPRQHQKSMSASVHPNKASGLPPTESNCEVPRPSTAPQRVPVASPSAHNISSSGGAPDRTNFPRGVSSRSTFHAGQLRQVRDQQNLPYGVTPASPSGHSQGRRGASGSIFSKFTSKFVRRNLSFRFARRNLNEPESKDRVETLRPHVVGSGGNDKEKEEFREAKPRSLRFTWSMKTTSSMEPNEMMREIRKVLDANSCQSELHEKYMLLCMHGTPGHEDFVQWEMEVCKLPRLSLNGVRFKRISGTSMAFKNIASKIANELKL
# MELK (human) = MELK (human) (UniProt Q14680)
# MLTK (human) = MLTK (human) (UniProt Q9NYL2)
# NEK9 (human) = NEK9 (human) (UniProt Q8TD19)
# NLK (human) = NLK (human) (UniProt Q9UBE8)
# NTRK3 (human) = NTRK3 (human) (UniProt Q16288)
# PAK2 (human) = PAK2 (human) (UniProt Q13177)
# PAK4 (human) = PAK4 (human) (UniProt O96013)
# PAK7 (human) = PAK7 (human) (UniProt Q9P286)
# PBK (human) = PBK (human) (UniProt Q96KB5)
# Chain of PBK (human) (Q96KB5 whole entry, looked up): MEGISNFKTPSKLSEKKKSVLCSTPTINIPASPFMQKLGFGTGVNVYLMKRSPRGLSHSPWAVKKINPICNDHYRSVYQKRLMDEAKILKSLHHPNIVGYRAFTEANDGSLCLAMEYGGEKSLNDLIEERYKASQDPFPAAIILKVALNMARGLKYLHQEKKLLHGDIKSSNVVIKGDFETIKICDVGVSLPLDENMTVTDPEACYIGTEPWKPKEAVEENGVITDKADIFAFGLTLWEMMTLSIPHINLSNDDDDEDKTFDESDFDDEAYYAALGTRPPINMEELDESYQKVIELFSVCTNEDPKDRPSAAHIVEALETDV
# PHKG1 (human) = PHKG1 (human) (UniProt Q16816)
# PHKG2 (human) = PHKG2 (human) (UniProt P15735)
# PLK1 (human) = PLK1 (human) (UniProt P53350)
# PRKCA (human) = PRKCA (human) (UniProt P17252)
# PRKD2 (human) = PRKD2 (human) (UniProt Q9BZL6)
# PRKD3 (human) = PRKD3 (human) (UniProt O94806)
# RPS6KA5 KD2 (human) = RPS6KA5 KD2 (human) (UniProt O75582)
# SGK3 (human) = SGK3 (human) (UniProt Q96BR1)
# SRC (human) = SRC (human) (UniProt P12931)
# STK3 (human) = STK3 (human) (UniProt Q13188)
# ZAP70 (human) = ZAP70 (human) (UniProt P43403)
# Chain of ALK (human) (Q9UM73 whole entry, looked up): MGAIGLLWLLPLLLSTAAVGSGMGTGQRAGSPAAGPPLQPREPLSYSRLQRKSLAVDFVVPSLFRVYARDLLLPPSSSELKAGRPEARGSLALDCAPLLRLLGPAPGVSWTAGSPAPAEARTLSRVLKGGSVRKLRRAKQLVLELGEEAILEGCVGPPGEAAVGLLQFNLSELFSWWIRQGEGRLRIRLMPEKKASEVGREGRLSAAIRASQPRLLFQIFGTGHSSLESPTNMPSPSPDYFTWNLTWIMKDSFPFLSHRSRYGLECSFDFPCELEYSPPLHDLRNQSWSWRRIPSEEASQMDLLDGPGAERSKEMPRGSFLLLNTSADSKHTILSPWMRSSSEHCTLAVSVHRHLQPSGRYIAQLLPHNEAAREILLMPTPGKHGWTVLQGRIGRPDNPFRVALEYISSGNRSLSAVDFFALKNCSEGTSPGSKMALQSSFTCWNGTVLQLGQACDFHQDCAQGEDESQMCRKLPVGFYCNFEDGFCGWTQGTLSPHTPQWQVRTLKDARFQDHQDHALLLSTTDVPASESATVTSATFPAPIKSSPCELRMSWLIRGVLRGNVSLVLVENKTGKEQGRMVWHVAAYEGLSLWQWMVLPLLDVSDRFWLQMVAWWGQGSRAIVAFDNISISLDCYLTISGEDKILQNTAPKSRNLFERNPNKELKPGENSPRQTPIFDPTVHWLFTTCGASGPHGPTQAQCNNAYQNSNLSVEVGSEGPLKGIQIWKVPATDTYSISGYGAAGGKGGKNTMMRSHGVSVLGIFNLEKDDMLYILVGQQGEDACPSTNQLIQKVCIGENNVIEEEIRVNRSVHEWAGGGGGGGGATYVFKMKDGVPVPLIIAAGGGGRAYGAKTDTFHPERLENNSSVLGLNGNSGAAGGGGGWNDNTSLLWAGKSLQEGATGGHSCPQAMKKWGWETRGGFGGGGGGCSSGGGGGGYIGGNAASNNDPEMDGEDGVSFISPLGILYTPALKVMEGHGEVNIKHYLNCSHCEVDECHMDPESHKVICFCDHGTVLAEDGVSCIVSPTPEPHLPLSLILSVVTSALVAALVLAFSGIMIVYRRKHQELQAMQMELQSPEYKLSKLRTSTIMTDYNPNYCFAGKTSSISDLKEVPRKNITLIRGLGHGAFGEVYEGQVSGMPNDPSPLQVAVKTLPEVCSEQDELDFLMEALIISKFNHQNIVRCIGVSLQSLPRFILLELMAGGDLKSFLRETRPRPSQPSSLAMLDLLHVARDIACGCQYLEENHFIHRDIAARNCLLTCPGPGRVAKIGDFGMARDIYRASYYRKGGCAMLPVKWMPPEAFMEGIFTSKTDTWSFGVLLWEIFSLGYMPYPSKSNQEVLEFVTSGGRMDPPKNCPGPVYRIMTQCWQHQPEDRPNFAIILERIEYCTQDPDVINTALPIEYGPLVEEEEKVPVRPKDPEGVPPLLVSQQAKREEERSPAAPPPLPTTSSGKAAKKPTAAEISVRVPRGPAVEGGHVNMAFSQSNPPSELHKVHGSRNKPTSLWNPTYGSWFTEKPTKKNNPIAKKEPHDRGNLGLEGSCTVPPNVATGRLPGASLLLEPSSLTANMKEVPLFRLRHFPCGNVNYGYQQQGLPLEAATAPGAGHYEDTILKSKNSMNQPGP
smiles,measurement,setting,value
COc1cc2ncnc(Nc3ccc(OCc4ccccc4)cc3)c2cc1OC,residual activity,ACVRL1 (human),102%
same,residual activity,AKT2 (human),101%
same,residual activity,ALK (human),103%
same,residual activity,CAMK1D (human),104%
same,residual activity,CDK5 CDK5R1 p25 (human),97.8%
same,residual activity,CLK1 (human),111%
same,residual activity,CSK (human),72.5%
same,residual activity,DDR2 (human),100%
same,residual activity,DYRK3 (human),101%
same,residual activity,EPHA3 (human),98.1%
same,residual activity,EPHA8 (human),102%
same,residual activity,GRK4 (human),106%
same,residual activity,GRK6 (human),104%
same,residual activity,HIPK2 (human),111%
same,residual activity,IGF1R (human),102%
same,residual activity,IKBKE (human),99.7%
same,residual activity,LCK (human),42.2%
same,residual activity,MAP3K9 (human),96.5%
same,residual activity,MAPK10 (human),84.5%
same,residual activity,MAPK14 (human),101%
same,residual activity,MAPK3 (human),98.4%
same,residual activity,MARK2 (human),108%
same,residual activity,MELK (human),102%
same,residual activity,MLTK (human),96.2%
same,residual activity,NEK9 (human),104%
same,residual activity,NLK (human),96.5%
same,residual activity,NTRK3 (human),93.8%
same,residual activity,PAK2 (human),102%
same,residual activity,PAK4 (human),103%
same,residual activity,PAK7 (human),99.6%
same,residual activity,PBK (human),109%
same,residual activity,PHKG1 (human),100%
same,residual activity,PHKG2 (human),97.4%
same,residual activity,PLK1 (human),101%
same,residual activity,PRKCA (human),93.9%
same,residual activity,PRKD2 (human),101%
same,residual activity,PRKD3 (human),95.3%
same,residual activity,RPS6KA5 KD2 (human),103%
same,residual activity,SGK3 (human),105%
same,residual activity,SRC (human),102%
same,residual activity,STK3 (human),97.6%
same,residual activity,ZAP70 (human),87.6%
COc1ccc(S(=O)(=O)N(CCO)c2ccccc2CN(C)C/C=C/c2ccc(Cl)cc2)cc1,residual activity,ACVRL1 (human),98.4%
same,residual activity,AKT2 (human),106%
same,residual activity,ALK (human),98.1%
same,residual activity,CAMK1D (human),103%
same,residual activity,CDK5 CDK5R1 p25 (human),97.7%
same,residual activity,CLK1 (human),96.4%
same,residual activity,CSK (human),95.6%
same,residual activity,DDR2 (human),96.8%
same,residual activity,DYRK3 (human),113%
same,residual activity,EPHA3 (human),102%
same,residual activity,EPHA8 (human),100%
same,residual activity,GRK4 (human),94%
same,residual activity,GRK6 (human),106%
same,residual activity,HIPK2 (human),107%
same,residual activity,IGF1R (human),103%
same,residual activity,IKBKE (human),93.7%
same,residual activity,LCK (human),95.5%
same,residual activity,MAP3K9 (human),102%
same,residual activity,MAPK10 (human),95.5%
same,residual activity,MAPK14 (human),95.1%
same,residual activity,MAPK3 (human),95.1%
same,residual activity,MARK2 (human),95.5%
same,residual activity,MELK (human),99.4%
same,residual activity,MLTK (human),97%
same,residual activity,NEK9 (human),91.9%
same,residual activity,NLK (human),101%
same,residual activity,NTRK3 (human),95.3%
same,residual activity,PAK2 (human),101%
same,residual activity,PAK4 (human),101%
same,residual activity,PAK7 (human),107%
same,residual activity,PBK (human),95.3%
same,residual activity,PHKG1 (human),95.4%
same,residual activity,PHKG2 (human),103%
same,residual activity,PLK1 (human),98.8%
same,residual activity,PRKCA (human),98.2%
same,residual activity,PRKD2 (human),99.8%
same,residual activity,PRKD3 (human),97.1%
same,residual activity,RPS6KA5 KD2 (human),103%
same,residual activity,SGK3 (human),106%
same,residual activity,SRC (human),92.7%
same,residual activity,STK3 (human),101%
same,residual activity,ZAP70 (human),84.7%
NC(=O)c1cccc(-c2cc(Nc3ccc(OC(F)(F)F)cc3)ncn2)c1,residual activity,ACVRL1 (human),99.2%
same,residual activity,AKT2 (human),105%
same,residual activity,ALK (human),103%
same,residual activity,CAMK1D (human),105%
same,residual activity,CDK5 CDK5R1 p25 (human),80.1%
same,residual activity,CLK1 (human),115%
same,residual activity,CSK (human),104%
same,residual activity,DDR2 (human),108%
same,residual activity,DYRK3 (human),99.9%
same,residual activity,EPHA3 (human),97.5%
same,residual activity,EPHA8 (human),94.5%
same,residual activity,GRK4 (human),94.8%
same,residual activity,GRK6 (human),101%
same,residual activity,HIPK2 (human),102%
same,residual activity,IGF1R (human),91%
same,residual activity,IKBKE (human),107%
same,residual activity,LCK (human),93.3%
same,residual activity,MAP3K9 (human),95.7%
same,residual activity,MAPK10 (human),104%
same,residual activity,MAPK14 (human),92%
same,residual activity,MAPK3 (human),94.5%
same,residual activity,MARK2 (human),90.8%
same,residual activity,MELK (human),94.5%
same,residual activity,MLTK (human),102%
same,residual activity,NEK9 (human),93.8%
same,residual activity,NLK (human),93.4%
same,residual activity,NTRK3 (human),92.7%
same,residual activity,PAK2 (human),106%
same,residual activity,PAK4 (human),94.6%
same,residual activity,PAK7 (human),88.1%
same,residual activity,PBK (human),72.2%
same,residual activity,PHKG1 (human),99.2%
same,residual activity,PHKG2 (human),103%
same,residual activity,PLK1 (human),97.7%
same,residual activity,PRKCA (human),77.4%
same,residual activity,PRKD2 (human),102%
same,residual activity,PRKD3 (human),93.2%
same,residual activity,RPS6KA5 KD2 (human),104%
same,residual activity,SGK3 (human),104%
same,residual activity,SRC (human),97%
same,residual activity,STK3 (human),93.6%
same,residual activity,ZAP70 (human),97.1%
COc1ccc(C(=O)Nc2sc3c(c2C(N)=O)CCCC3)cc1OC,residual activity,ACVRL1 (human),110%
same,residual activity,AKT2 (human),97%
same,residual activity,ALK (human),66.2%
same,residual activity,CAMK1D (human),93.8%
same,residual activity,CDK5 CDK5R1 p25 (human),94.2%
same,residual activity,CLK1 (human),96.9%
same,residual activity,CSK (human),98.8%
same,residual activity,DDR2 (human),102%
same,residual activity,DYRK3 (human),98%
same,residual activity,EPHA3 (human),108%
same,residual activity,EPHA8 (human),114%
same,residual activity,GRK4 (human),95.1%
same,residual activity,GRK6 (human),98.5%
same,residual activity,HIPK2 (human),107%
same,residual activity,IGF1R (human),97.7%
same,residual activity,IKBKE (human),106%
same,residual activity,LCK (human),93.8%
same,residual activity,MAP3K9 (human),101%
same,residual activity,MAPK10 (human),84.5%
same,residual activity,MAPK14 (human),97.5%
same,residual activity,MAPK3 (human),95.2%
same,residual activity,MARK2 (human),98.7%
same,residual activity,MELK (human),46%
same,residual activity,MLTK (human),93.8%
same,residual activity,NEK9 (human),94.6%
same,residual activity,NLK (human),93.7%
same,residual activity,NTRK3 (human),57.7%
same,residual activity,PAK2 (human),99.1%
same,residual activity,PAK4 (human),95.9%
same,residual activity,PAK7 (human),96.6%
same,residual activity,PBK (human),103%
same,residual activity,PHKG1 (human),94.3%
same,residual activity,PHKG2 (human),106%
same,residual activity,PLK1 (human),99%
same,residual activity,PRKCA (human),96.6%
same,residual activity,PRKD2 (human),99.4%
same,residual activity,PRKD3 (human),103%
same,residual activity,RPS6KA5 KD2 (human),105%
same,residual activity,SGK3 (human),103%
same,residual activity,SRC (human),100%
same,residual activity,STK3 (human),99.6%
same,residual activity,ZAP70 (human),95.6%
